Laboratory results taken from patent publication US11285140B2, “Piperidin-4-yl azetidine derivatives as JAK1 inhibitors” (Incyte Corporation, priority 2010, dated 2022).

Legend:
Type in all cases: biochemical
[1] = target: human JAK1 (a.a. 837-1142) (Homo sapiens, UniProt P23458); test: In vitro JAK kinase assay (HTRF, phosphorylation of biotinylated peptide), JAK1; settings: measured at 1 mM ATP
Experimental: (§1) Compounds herein were tested for inhibitory activity of JAK targets according to the following in vitro assay described in Park et al., Analytical Biochemistry 1999, 269, 94-104. The catalytic domains of human JAK1 (a.a. 837-1142), Jak2 (a.a. 828-1132) and Jak3 (a.a. 781-1124) with an N-terminal His tag were expressed using baculovirus in insect cells and purified. The catalytic activity of JAK1, JAK2 or JAK3 was assayed by measuring the phosphorylation of a biotinylated peptide. The phosphorylated peptide was detected by homogenous time resolved fluorescence (HTRF). […] Reactions were carried out at room temperature for 1 hr and then stopped with 20 μL 45 mM EDTA, 300 nM SA-APC, 6 nM Eu-Py20 in assay buffer (Perkin Elmer, Boston, Mass.). Binding to the Europium labeled antibody took place for 40 minutes and HTRF signal was measured on a Fusion plate reader (Perkin Elmer, Boston, Mass.).

[2] = target: human JAK1 (a.a. 837-1142); test: as above; settings: measured at 1 mM ATP; JAK2 IC50 / JAK1 IC50
Experimental: as §1

[3] = target: human Jak2 (a.a. 828-1132) (Homo sapiens (Human), UniProt O60674); test: In vitro JAK kinase assay (HTRF, phosphorylation of biotinylated peptide), JAK2; settings: measured at 1 mM ATP
Chain of human Jak2 (a.a. 828-1132) (O60674 828-1132): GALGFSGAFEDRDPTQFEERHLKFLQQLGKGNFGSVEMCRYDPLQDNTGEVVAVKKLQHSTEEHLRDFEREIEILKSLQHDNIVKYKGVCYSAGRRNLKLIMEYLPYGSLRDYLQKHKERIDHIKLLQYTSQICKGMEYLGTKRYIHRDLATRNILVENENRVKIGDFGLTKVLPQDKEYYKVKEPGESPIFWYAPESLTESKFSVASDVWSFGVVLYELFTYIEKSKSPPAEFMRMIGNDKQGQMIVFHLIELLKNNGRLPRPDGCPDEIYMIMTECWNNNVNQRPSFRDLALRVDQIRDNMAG
Experimental: as §1

Compound | IC50 [1] [nM] | IC50 Ratio JAK2/JAK1 [2] | IC50 [3] [nM]
4-{3-(cyanomethyl)-3-[4-(7H-pyrrolo[2,3- d]pyrimidin-4-yl)-1H-pyrazol-1- yl]azetidin-1-yl}-N-(3,5-difluorophenyl) piperidine-1-carboxamide [Example 175] | ≤ 5 | 3.6 | ≤ 10
N#CCC1(n2cc(-c3ncnc4[nH]ccc34)cn2)CN(C2CCN(C(=O)C3Cc4ccccc4C3)CC2)C1 [Example 99, {1-[1-(2,3-dihydro-1H-inden-2-ylcarbonyl)piperidin-4-yl]-3-[4-(7H-pyrrolo[2,3-d]pyrimidin-4-yl)-1H-pyrazol-1-yl]azetidin-3-yl}acetonitrile] | 5 to 20 | 5.6 | 10 to 50
CC(C)(C)C(=O)Nc1cc(CN2CCC(N3CC(CC#N)(n4cc(-c5ncnc6[nH]ccc56)cn4)C3)CC2)ccn1 [Example 235, N-{4-[(4-{3-(cyanomethyl)-3-[4-(7H-pyrrolo[2,3-d]pyrimidin-4-yl)-1H-pyrazol-1-yl]azetidin-1-yl}piperidin-1-yl)methyl]pyridin-2-yl}-2,2-dimethylpropanamide] | 5 to 20 | 2.5 | 10 to 50
4-{3-(cyanomethyl)-3-[4-(7H-pyrrolo[2,3- d]pyrimidin-4-yl)-1H-pyrazol-1- yl]azetidin-1-yl}-N-(2,5-difluorophenyl) piperidine-1-carboxamide [Example 174] | ≤ 5 | 7.1 | ≤ 10
N#CCC1(n2cc(-c3ncnc4[nH]ccc34)cn2)CN(C2CCN(Cc3ccc(F)cc3F)CC2)C1 [Example 217, {1-[1-(2,4-difluorobenzyl)piperidin-4-yl]-3-[4-(7H-pyrrolo[2,3-d]pyrimidin-4-yl)-1H-pyrazol-1-yl]azetidin-3-yl}acetonitrile] | 5 to 20 | 5.8 | 10 to 50
4-{3-(cyanomethyl)-3-[4-(7H-pyrrolo[2,3- d]pyrimidin-4-yl)-1H-pyrazol-1- yl]azetidin-1-yl}-N-(2-methylphenyl) piperidine-1-carboxamide [Example 185] | ≤ 5 | 9.5 | 10 to 50
4-{3-(cyanomethyl)-3-[3-(7H-pyrrolo[2,3- d]pyrimidin-4-yl)-1H-pyrrol-1- yl]azetidin-1-yl}-N-[4- (trifluoromethyl)pyridin-3-yl]piperidine- 1-carboxamide [Example 165] | 5 to 20 | 10.4 | 50 to 100
